# Measurements published in PMC4170737 (Bioorganic & medicinal chemistry letters, 2014).
# Assays:
# [1] = target: T1, human PMI (phosphomannose isomerase) (Homo sapiens, UniProt P34949)
# T1 sequence (P34949 1-423): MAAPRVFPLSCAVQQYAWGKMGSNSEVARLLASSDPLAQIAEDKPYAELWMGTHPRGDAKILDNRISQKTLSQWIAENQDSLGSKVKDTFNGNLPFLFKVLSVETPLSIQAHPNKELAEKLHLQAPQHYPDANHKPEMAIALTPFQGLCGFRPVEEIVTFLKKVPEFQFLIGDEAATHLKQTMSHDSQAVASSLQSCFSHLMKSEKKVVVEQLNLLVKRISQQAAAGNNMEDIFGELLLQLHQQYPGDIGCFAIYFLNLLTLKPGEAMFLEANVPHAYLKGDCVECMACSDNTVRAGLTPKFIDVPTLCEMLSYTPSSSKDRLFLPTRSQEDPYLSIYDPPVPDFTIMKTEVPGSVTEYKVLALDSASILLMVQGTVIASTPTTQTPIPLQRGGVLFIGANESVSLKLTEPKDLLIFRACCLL
# human PMM2 [2] = target: T2, human PMM2 (Homo sapiens, UniProt O15305)
# T2 sequence (O15305 1-246): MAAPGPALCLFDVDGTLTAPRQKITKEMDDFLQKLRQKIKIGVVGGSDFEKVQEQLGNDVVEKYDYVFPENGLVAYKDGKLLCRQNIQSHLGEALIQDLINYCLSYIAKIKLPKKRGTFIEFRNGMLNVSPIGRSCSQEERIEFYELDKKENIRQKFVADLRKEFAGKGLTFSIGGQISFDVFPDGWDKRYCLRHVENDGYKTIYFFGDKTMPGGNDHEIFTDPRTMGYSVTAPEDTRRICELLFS
# [3] = Hepatic microsome stability, human; settings: for Hepatic Microsome Stability: human (first or only value of cell)
# [4] = Plasma protein binding, human
# human PMM2 [5] = target: T2, human PMM2; test: biochemical
# [6] = tested on: mevalonate pathway in streptococcus pneumonia; settings: ref PubChem AID1028; cited from earlier work
# TNAP = target: T3, TNAP (Homo sapiens, UniProt P05186)
# T3 sequence (P05186 18-502 limits assumed): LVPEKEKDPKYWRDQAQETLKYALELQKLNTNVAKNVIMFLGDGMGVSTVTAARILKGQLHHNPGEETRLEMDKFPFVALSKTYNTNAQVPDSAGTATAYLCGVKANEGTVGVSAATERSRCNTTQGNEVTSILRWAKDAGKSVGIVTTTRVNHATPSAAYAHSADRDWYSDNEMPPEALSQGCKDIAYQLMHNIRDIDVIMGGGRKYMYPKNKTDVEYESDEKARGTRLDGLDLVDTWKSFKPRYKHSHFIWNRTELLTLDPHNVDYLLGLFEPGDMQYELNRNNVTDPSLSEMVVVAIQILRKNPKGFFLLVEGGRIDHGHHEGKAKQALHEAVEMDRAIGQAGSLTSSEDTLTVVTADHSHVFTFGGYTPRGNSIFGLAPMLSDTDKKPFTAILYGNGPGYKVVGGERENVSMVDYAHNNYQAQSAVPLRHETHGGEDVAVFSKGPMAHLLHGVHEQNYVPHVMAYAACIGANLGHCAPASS
# [7] = Hepatic microsome stability, mouse; settings: for Hepatic Microsome Stability: mouse (first or only value of cell)
# [8] = Plasma protein binding, mouse
# [9] = 1× PBS, pH 7.4 alone, mouse column (second value of cell)
# [10] = mouse plasma: 1× PBS, pH 7.4, 1:1 (first value of cell)
# [11] = 1× PBS, pH 7.4 alone, human column (second value of cell)
# [12] = human plasma: 1× PBS, pH 7.4, 1:1 (first value of cell)
SMILES,Activity at PMI (in words) [1],Activity at PMM2 (in words) (human PMM2 [2]),"Plasma Stability (Plasma stability, mouse; [9]) [% Remaining at 3hrs]","Plasma Stability (Plasma stability, mouse; [10]) [% Remaining at 3hrs]",Hepatic Microsome Stability [3] [% Remaining at 1hr],Plasma Protein Binding ([4]; 1 μM) [% Bound],IC50 (human PMM2 [5]) [µM],Activity in screen for inhibitors of the mevalonate pathway (in words) [6],Inhibitory activity against TNAP (in words) (TNAP),Hepatic Microsome Stability [7] [% Remaining at 1hr],"Plasma Stability (Plasma stability, human; [11]) [% Remaining at 3hrs]","Plasma Stability (Plasma stability, human; [12]) [% Remaining at 3hrs]",Plasma Protein Binding ([8]; 1 μM) [% Bound],Plasma Protein Binding ([8]; 10 μM) [% Bound],Plasma Protein Binding ([4]; 10 μM),"Hepatic Microsome Stability (NADPH minus) ([3]; human, NADPH minus (second value of cell)) [% Remaining at 1hr]","Hepatic Microsome Stability (NADPH minus) ([7]; mouse, NADPH minus (second value of cell)) [% Remaining at 1hr]","Papp (PAMPA permeability; PAMPA Permeability, donor pH 5.0, acceptor pH 7.4) [×10⁻⁶ cm/s]","Papp (PAMPA permeability; PAMPA Permeability, donor pH 6.2, acceptor pH 7.4) [×10⁻⁶ cm/s]","Papp (PAMPA permeability; pH 7.4, PAMPA Permeability, donor pH 7.4, acceptor pH 7.4) [×10⁻⁶ cm/s]"
CCN(CC)S(=O)(=O)c1cccc(-n2sc3ccccc3c2=O)c1 [Compound 2t],devoid of activity,devoid of activity,–,–,–,–,–,–,–,–,–,–,–,–,–,–,–,–,–,–
CCOC(=O)c1ccc(-n2sc3ccccc3c2=O)cc1 [Compound 2p],essentially devoid of activity,essentially devoid of activity,–,–,–,–,–,–,–,–,–,–,–,–,–,–,–,–,–,–
CN(C)C(=O)c1cccc(-n2sc3ccccc3c2=O)c1 [Compound 2q],no activity,no activity,56.9,76.2,45.7,41.3,> 50,weak activity,devoid of any significant inhibitory activity,56.6,60.0,18.9,48.0,46.7,–,–,–,–,–,–
O=C(O)c1cccc(-n2sc3ccccc3c2=O)c1 [Compound 2n],–,no activity,71.2,100,100,–,–,–,–,100,55.5,50.2,18.8,30.1,n.d. / 59.4 % Bound,–,–,–,–,–
CN(C)S(=O)(=O)c1cccc(-n2sc3ccccc3c2=O)c1 [Compound 2s],–,–,40.0,65.3,72.4,–,–,–,–,100,32.3,11.4,35.6,34.1,n.d. / 56.5 % Bound,–,–,–,–,–
COC(=O)c1cccc(-n2sc3ccccc3c2=O)c1 [Compound 2o],–,–,55.2,59.6,72.4,41.2,–,–,–,45.9,49.3,15.4,48.0,37.6,57.3 % Bound,31.5,44.6,1290,1230,1300
O=c1c2ccccc2sn1-c1ccc(F)c(Cl)c1 [Compound 2m],inactive,inactive,–,–,–,–,–,–,–,–,–,–,–,–,–,–,–,–,–,–
